Experimental data reported in patent US20250145601A1, “NOVEL BICYCLIC COMPOUNDS AS RAD51 INHIBITORS” (SATYA THERAPEUTICS, INC., priority 2022, published 2025).

System: MDA MB 231 cells
Assay: Antiproliferation assay in MDA MB 231 cells (Cell Titer Glo)
Type: cell-based
Conditions: MDAMB231 cell line, 9 day treatment; for inhibition at 10 µM: Homo sapiens, MDA-MB-231, 216 h
Procedure: Antiproliferation Assay in MDA MB 231 Cells MDA MB 231 cells were seeded in 96 well plate at a seeding density of 250 cells/well. The cells were allowed to settle overnight under standard incubator conditions (37° C., 5% CO2). Next day treatment with increasing dose of test compounds and reference compounds were done to the respective wells and the cells were further incubated under standard cell culture conditions for another 4 days. On the 5th day, media was replenished with fresh treatment and cells were incubated for a total of 9 day treatment period. On the day of termination, appropriate volume of Cell Titer Glo reagent was added to the treatment (and control) wells and the plates were kept on a plate shaker @300 RPM for 15 min. Luminiscence reading (RLU) was […] RLU is directly proportional to ATP content and is directly related to number of metabolically active cells in the respective well. Calculation: a. Blank Correction: RLU of the Wells Containing No Cells is Considered as Blank and Subtracted from all RLU of the Treated and Control Wells [formula]

[1] = separated enantiomers A/B (Table 3)

Structure (SMILES)	inhibition at 10 µM (racemic compounds (Table 2))	also measured
CCC(=O)N1N=C(c2c(=O)[nH]cc3ccccc23)CC1c1ccc(OC)cc1 (stereo not shown) [Example 19, 4-(5-(4-methoxyphenyl)-1-propionyl-4,5-dihydro-1H-pyrazol-3-yl)isoquinolin-3(2H)-one]	< 50%	–
CCC(=O)N1N=C(c2c(C)c3ccsc3[nH]c2=O)CC1c1ccc(C2CC2)cc1 (stereo not shown) [Example 47, 5-(5-(4-cyclopropylphenyl)-1-propionyl-4,5-dihydro-1H-pyrazol-3-yl)-4-methylthieno[2,3-b]pyridin-6(7H)-one]	< 50%	–
CCC(=O)N1N=C(c2c(C)c3ccsc3[nH]c2=O)CC1c1cnc(C)cc1OC (stereo not shown) [Example 53, 5-(5-(4-methoxy-6-methylpyridin-3-yl)-1-propionyl-4,5-dihydro-1H-pyrazol-3-yl)-4-methylthieno[2,3-b]pyridin-6(7H)-one]	< 50%	–
CCC(=O)N1N=C(c2c(C)c3ccccc3[nH]c2=O)CC1c1ccc(C)cc1 (single isomer, unassigned) [Example 60B]	–	inhibition at 10 µM [1]: ≥ 50%
CCC(=O)N1N=C(c2c(C)c3ccsc3[nH]c2=O)CC1c1cnc(C)c(F)c1 (stereo not shown) [Example 55, 5-(5-(5-fluoro-6-methylpyridin-3-yl)-1-propionyl-4,5-dihydro-1H-pyrazol-3-yl)-4-methylthieno[2,3-b]pyridin-6(7H)-one]	≥ 50%	–
CCC(=O)N1N=C(c2c(C)c3ccsc3[nH]c2=O)CC1c1ccc(N(C)C)cc1 (stereo not shown) [Example 39, 5-(5-(4-(dimethylamino)phenyl)-1-propionyl-4,5-dihydro-1H-pyrazol-3-yl)-4-methylthieno[2,3-b]pyridin-6(7H)-one]	≥ 50%	–
CCC(=O)N1N=C(c2c(C)c3ccsc3[nH]c2=O)CC1c1ccc(C)cc1Cl (stereo not shown) [Example 65, 5-(5-(2-chloro-4-methylphenyl)-1-propionyl-4,5-dihydro-1H-pyrazol-3-yl)-4-methylthieno[2,3-b]pyridin-6(7H)-one]	≥ 50%	–
CCC(=O)N1N=C(c2c(C)c3cc(Cl)cnc3[nH]c2=O)CC1c1ccc(C)cc1 (stereo not shown) [Example 67, 6-chloro-4-methyl-3-(1-propionyl-5-(p-tolyl)-4,5-dihydro-1H-pyrazol-3-yl)-1,8-naphthyridin-2(1H)-one]	< 50%	–
COc1ccc(C2CC(c3c(C)c4cc(Cl)ccc4[nH]c3=O)=NN2C(=O)C2CCOC2)cc1 (stereo not shown) [Example 4, 6-chloro-3-(5-(4-methoxyphenyl)-1-(tetrahydrofuran-3-carbonyl)-4,5-dihydro-1H-pyrazol-3-yl)-4-methylquinolin-2(1H)-one]	≥ 50%	–
CCC(=O)N1N=C(c2c(C)c3c(Cl)csc3[nH]c2=O)CC1c1ccc(OC)cc1 (stereo not shown) [Example 40, 3-chloro-5-(5-(4-methoxyphenyl)-1-propionyl-4,5-dihydro-1H-pyrazol-3-yl)-4-methylthieno[2,3-b]pyridin-6(7H)-one]	< 50%	–
CCC(=O)N1N=C(c2c(C)c3cc(Br)ccc3[nH]c2=O)CC1c1ccc(OC)cc1 (stereo not shown) [Example 15, 6-bromo-3-(5-(4-methoxyphenyl)-1-propionyl-4,5-dihydro-1H-pyrazol-3-yl)-4-methylquinolin-2(1H)-one]	≥ 50%	–
CCC(=O)N1N=C(c2c(C)c3ccsc3[nH]c2=O)CC1c1ccc(OC)nc1 (stereo not shown) [Example 21, 5-(5-(6-methoxypyridin-3-yl)-1-propionyl-4,5-dihydro-1H-pyrazol-3-yl)-4-methylthieno[2,3-b]pyridin-6(7H)-one]	≥ 50%	–
CCC(=O)N1N=C(c2c(C)c3ccnc(C)c3[nH]c2=O)CC1c1ccc(C)cc1 (single isomer, unassigned) [Example 78A]	–	inhibition at 10 µM [1]: < 50%
CCC(=O)N1N=C(c2c(C)c3ccnc(C)c3[nH]c2=O)CC1c1ccc(C)cc1 (single isomer, unassigned) [Example 78B]	–	% inhibition @ 10 μM (separated enantiomers A/B (Table 3), 10 µM): + (≥50% +)
CCC(=O)N1N=C(c2c(C)c3ccsc3[nH]c2=O)CC1c1ccc(N2CCCC2)cc1 (stereo not shown) [Example 46, 4-methyl-5-(1-propionyl-5-(4-(pyrrolidin-1-yl)phenyl)-4,5-dihydro-1H-pyrazol-3-yl)thieno[2,3-b]pyridin-6(7H)-one]	≥ 50%	–
CCC(=O)N1N=C(c2c(C)c3cc(Cl)ccc3[nH]c2=O)CC1c1ccc(C)cc1 (stereo not shown) [Example 59, 6-chloro-4-methyl-3-(1-propionyl-5-(p-tolyl)-4,5-dihydro-1H-pyrazol-3-yl)quinolin-2(1H)-one]	≥ 50%	–
CCC(=O)N1N=C(c2c(C)c3ccc(N4CCOCC4)cc3[nH]c2=O)CC1c1ccc(C)cc1 (stereo not shown) [Example 77, 4-methyl-7-morpholino-3-(1-propionyl-5-(p-tolyl)-4,5-dihydro-1H-pyrazol-3-yl)quinolin-2(1H)-one]	≥ 50%	–

Structure (SMILES)	inhibition at 10 µM (racemic compounds (Table 2))	also measured
CCC(=O)N1N=C(c2c(C)c3ccccc3[nH]c2=O)CC1c1cn(C)c2ccccc12 (stereo not shown) [Example 12, 4-Methyl-3-(5-(1-methyl-1H-indol-3-yl)-1-propionyl-4,5-dihydro-1H-pyrazol-3-yl)quinolin-2(1H)-one]	≥ 50%	–
CCC(=O)N1N=C(c2c(C)c3ccsc3[nH]c2=O)CC1c1ccc(CC)cc1 (stereo not shown) [Example 44, 5-(5-(4-ethylphenyl)-1-propionyl-4,5-dihydro-1H-pyrazol-3-yl)-4-methylthieno[2,3-b]pyridin-6(7H)-one]	≥ 50%	–
CCC(=O)N1N=C(c2c(C)c3ccsc3[nH]c2=O)CC1c1ccsc1 (racemic) [Example 33, 4-methyl-5-(1-propionyl-5-(thiophen-3-yl)-4,5-dihydro-1H-pyrazol-3-yl)thieno[2,3-b]pyridin-6(7H)-one]	< 50%	–
CCC(=O)N1N=C(c2c(C)c3ccnc(C)c3[nH]c2=O)CC1c1ccc(C)cc1 (racemic) [Example 78, 4,8-dimethyl-3-(1-propionyl-5-(p-tolyl)-4,5-dihydro-1H-pyrazol-3-yl)-1,7-naphthyridin-2(1H)-one]	≥ 50%	–
CC(=O)N1N=C(c2c(C)c3ccsc3[nH]c2=O)CC1c1ccc(C)cc1 (stereo not shown) [Example 62, 5-(1-acetyl-5-(p-tolyl)-4,5-dihydro-1H-pyrazol-3-yl)-4-methyl-7,7a-dihydrothieno[2,3-b]pyridin-6(7H)-one]	≥ 50%	–
CCC(=O)N1N=C(c2c(C)c3ccc(Cl)cc3[nH]c2=O)CC1c1ccc(C)cc1 (single isomer, unassigned) [Example 80A]	–	inhibition at 10 µM [1]: < 50%
CCC(=O)N1N=C(c2c(C)c3ccsc3[nH]c2=O)CC1c1ccc(Cl)cc1 (single isomer, unassigned) [Example 28B]	–	inhibition at 10 µM [1]: ≥ 50%
CCC(=O)N1N=C(c2c(C)c3ccsc3[nH]c2=O)CC1c1ccc(C(F)F)cc1 (stereo not shown) [Example 43, 5-(5-(4-(difluoromethyl)phenyl)-1-propionyl-4,5-dihydro-1H-pyrazol-3-yl)-4-methylthieno[2,3-b]pyridin-6(7H)-one]	≥ 50%	–
CCC(=O)N1N=C(c2c(C)c3ccc(F)cc3[nH]c2=O)CC1c1ccc(C)cc1 (stereo not shown) [Example 83, 7-fluoro-4-methyl-3-(1-propionyl-5-(p-tolyl)-4,5-dihydro-1H-pyrazol-3-yl)quinolin-2(1H)-one]	≥ 50%	–
CCC(=O)N1N=C(c2c(C)c3ccsc3[nH]c2=O)CC1c1ccc(C(C)C)cc1 (stereo not shown) [Example 49, 5-(5-(4-isopropylphenyl)-1-propionyl-4,5-dihydro-1H-pyrazol-3-yl)-4-methylthieno[2,3-b]pyridin-6(7H)-one]	< 50%	–
CCC(=O)N1N=C(c2c(C)c3ccsc3[nH]c2=O)CC1c1ccccc1 (stereo not shown) [Example 32, 4-methyl-5-(5-phenyl-1-propionyl-4,5-dihydro-1H-pyrazol-3-yl)thieno[2,3-b]pyridin-6(7H)-one]	< 50%	–
CCC(=O)N1N=C(c2c(C)c3ccsc3[nH]c2=O)CC1c1cnc(C)c(Cl)c1 (stereo not shown) [Example 52, 5-(5-(5-chloro-6-methylpyridin-3-yl)-1-propionyl-4,5-dihydro-1H-pyrazol-3-yl)-4-methylthieno[2,3-b]pyridin-6(7H)-one]	≥ 50%	–
CCC(=O)N1N=C(c2c(C)c3ccncc3[nH]c2=O)CC1c1ccc(C)cc1 (racemic) [Example 74, 4-methyl-3-(1-propionyl-5-(p-tolyl)-4,5-dihydro-1H-pyrazol-3-yl)-1,7-naphthyridin-2(1H)-one]	≥ 50%	–
COc1ccc(C2CC(c3c(C)c4cc(Cl)ccc4[nH]c3=O)=NN2C)cc1 (stereo not shown) [Example 5, 6-Chloro-3-(5-(4-methoxyphenyl)-1-methyl-4,5-dihydro-1H-pyrazol-3-yl)-4-methylquinolin-2(1H)-one]	< 50%	–
CCC(=O)N1N=C(c2c(C)c3ccsc3[nH]c2=O)CC1c1ccc(C(F)(F)F)cc1 (stereo not shown) [Example 42, 4-methyl-5-(1-propionyl-5-(4-(trifluoromethyl)phenyl)-4,5-dihydro-1H-pyrazol-3-yl)thieno[2,3-b]pyridin-6(7H)-one]	≥ 50%	–
CCC(=O)N1N=C(c2c(C)c3ccsc3[nH]c2=O)CC1c1ccc(N2CCN(C)CC2)cc1 (stereo not shown) [Example 38, 4-methyl-5-(5-(4-(4-methylpiperazin-1-yl)phenyl)-1-propionyl-4,5-dihydro-1H-pyrazol-3-yl)thieno[2,3-b]pyridin-6(7H)-one]	≥ 50%	–
CCC(=O)N1N=C(c2cc3cc(Cl)ccc3[nH]c2=O)CC1c1ccc(OC)cc1 (stereo not shown) [Example 17, 6-Chloro-3-(5-(4-methoxyphenyl)-1-propionyl-4,5-dihydro-1H-pyrazol-3-yl)quinolin-2(1H)-one]	≥ 50%	–
